Reference: patent publication US20260250721A1, “Biological Anisole Production” (Wageningen Universiteit, priority 2023, published 2026)
Where a chain is given by its changes, count along the chain named. Numbers in names are those of the source.

Assays:
[1] = Anisole capture at different dodecane ratios, 24 h flasks; assay type: physicochemical; details: 30° C., 250 rpm
Procedure: An additional experiment was performed to determine the optimal ratio of the two phases. Ratios of 0%, 5%, 15%, 30%, 50%, and 100% dodecane were tested in a total volume of 25 ml. […] Next, dodecane was added to the flasks according to the predetermined ratios. Flasks were incubated for 24 h at 30° C. and 250 rpm to simulate P. putida KT2440 growth. After incubation, samples were collected separately from each phase and concentrations were measured using HPLC. […] After 24 hours, samples containing the organic phase from 5% and 15% dodecane flasks captured on average 19.42% and 39.57% of the initial concentration of anisole, respectively. […] Flasks containing 30% dodecane, extracted approximately 75% of the anisole which was further increased to nearly 95% flasks with a 50% ratio.

[2] = Abiotic escape of anisole from M9 minimal media overnight; assay type: physicochemical; details: 2 mM anisole in M9 minimal media, flasks
[3] = Distribution of anisole and phenol between water and organic solvent after 1 h; assay type: physicochemical; details: 1 mM in water, equal volume of dodecane, ethyl acetate, isopropyl myristate or tributyrin
Procedure: A main bottleneck when producing anisole is its volatility. To overcome this problem an organic solvent can be used in biphasic fermentation to quantify volatile or insoluble products in water, allowing their recovery. To enable in situ anisole extraction, we tested four organic solvents: dodecane, ethyl acetate, isopropyl myristate, and tributyrin. […] Next, 0.9 ml of the stock solution was mixed with an equal volume of one of the selected solvents in an Eppendorf tube.
Therefore, dodecane was chosen as the solvent for anisole extraction.

[4] = test system: P. putida KT2440; assay: Toxicity analysis: growth of P. putida KT2440 at different phenol and anisole concentrations
Procedure: (§1) P. putida and E. coli cultures were incubated at 30° C. and 37° C. respectively. For cloning purposes, both strains were propagated in Lysogeny Broth (LB) medium containing 10 g/L NaCl, 10 g/L tryptone, and 5 g/L yeast extract. For the preparation of solid media, 1.5% (w/v) agar was added. […] All growth experiments were performed using M9 minimal medium (per Liter; 3.88 g K2HPO4, 1.63 g NaH2PO4, 2.0 g (NH4)2SO4, pH 7.0. The M9 media was supplemented with a trace elements solution (10 mg/L ethylenediaminetetraacetic acid (EDTA), 0.1 g/L MgCl2 6 H2O, 2 mg/L ZnSO4·7H2O, 1 mg/L CaCl2)·2H2O, 5 mg/L FeSO4·7 H2O, 0.2 mg/L Na2MoO4·2H2O, 0.2 mg/L CuSO4·5H2O, 0.4 mg/L CoCl2·6H2O, 1 mg/L MnCl2·2H2O). In these experiments, strains were precultured in 10 mL LB with corresponding antibiotics. Then, the cultures were washed twice in M9 media without a carbon source. Finally, the cultures were diluted to an OD600 of 0.1 to start the experiment. In all plate reader experiments, a glucose concentration of 10 mM was used. […] Plate reader experiments were carried out in 200 μL of M9 medium using an ELx808 plate reader (BioTek). Growth (OD600) was measured over time using continuous shaking and measurements were taken every three minutes. Flask experiments were performed in 250 mL Erlenmeyer flasks filled with 25 mL of M9 minimal medium containing 50 mM of glucose. […] The cultures were incubated in a rotary shaker at 200 rpm at 30° C.
The production of aromatic compounds often comes with unwanted toxicity. One way of circumventing this is the utilization of microbial hosts with high tolerance towards aromatic compounds (Li et al., 2020. Biotechnol Adv 41: 107548).
The presence of phenolic hydroxyl groups has been associated with the inhibition of microbial enzymes and the damage of the bacterial membrane (Miklasinska-Majdanik et al., 2018. Int J Environ Res Public Health 15: 2321).

[5] = test system: phenol; assay: Growth-coupled methyltransferase selection in CM-Aux; assay type: cell-based, Pseudomonas putida
From the text: This design relies on the conversion of methionine into cysteine through the intermediate homocysteine with the aid of a SAM-dependent methyltransferase. Exogenously added methionine is converted into SAM, which would subsequently be converted into S-adenosyl-l-homocysteine (SAH) by CVOMT1 (FIG. 8C). Then, SAH is converted into homocysteine and subsequently into cysteine by reverse trans-sulfuration restoring growth in the process.
Next, an aim was set to install the reverse trans-sulfuration module which will convert homocysteine to the amino acid cysteine. This is a two-step process, catalyzed by the enzymes cystathionine-β-synthase and cystathionine-γ-lyase. The C-module was created by cloning the cystathionine-β-synthase (Cys) from S. cerevisiae and the cystathionine-γ-lyase (PA) from Pseudomonas aeruginosa on a pSEVAb62 backbone. The CM-Aux strain was equipped with the C-module and growth of the strain in minimal media was assessed. In all cases, growth could only occur upon the expression of the C-module. This module converts homocysteine to […], and if active, produces cysteine, restoring growth (FIG. 8A). […]
Next, an aim was set to examine the anisole production rate of POMT1 compared to CVOMT1. […] Samples were taken at time zero only from the medium and then after 24 hours from both phases and analyzed at the HPLC.

[6] = test system: phenol; assay: Phenol consumption and anisole production by P. putida KT2440 expressing CVOMT1; assay type: cell-based, Pseudomonas putida; details: 50 mM glucose, 1 mM phenol
Procedure: as §1

[7] = test system: phenol; assay: Phenol consumption and anisole production, CVOMT1 vs POMT1 in P. putida KT2440 with 50% dodecane; assay type: cell-based, Pseudomonas putida; details: for anisole produced, maximum / phenol consumed: 50 mM glucose, 1 mM phenol, 1 mM methionine, 50% dodecane; for phenol consumed: 24 hours
Procedure: Cell growth was determined by measuring the optical density at 600 nm (OD600) using an OD600 DiluPhotometer spectrophotometer (IMPLEN) or a Synergy plate reader (BioTek Instruments). Analysis of glucose in supernatants was performed using high-performance liquid chromatography (HPLC) (Thermo Fisher Scientific) equipped with an Aminex HPX-87H column. The mobile phase was 5 mM of H2SO4 at a flow rate of 0.6 mL/min, the column temperatures were held at 60° C. and the compounds were detected using a Shodex RI-101 detector (Shodex). […] The mobile phase consisted of Milli-Q water (A), 100 mM formic acid (B) and acetonitrile (C) with a flow rate of 1 mL/min at 30° C. Chromatographic separation of analytes was attained using the following gradient program: t=0-5 min: A-55%, B-10% and C-35% from t=5-10 min ramp to A-10%, B-10% and C-80% and held until 15 min. Then from t=15-16 min, the gradient was returned to A-55%, B-10% and C-35% and maintained isocratic for a total run time of 18 min. For quantification, calibration curves were prepared using pure standards (purity) purchased from Sigma-Aldrich.
Next, an aim was set to examine the anisole production rate of POMT1 compared to CVOMT1. […] An initial sample was taken and hereafter 50% dodecane was added. Cells were then incubated overnight at 30° C. and 250 rpm. Samples were taken at time zero only from the medium and then after 24 hours from both phases and analyzed at the HPLC.

## COc1ccccc1 [anisole]
[1]; 0% dodecane
  anisole in water phase: almost undetectable
[1]; 5% dodecane
  anisole captured in organic phase, of initial concentration: 19.42%
[1]; 15% dodecane
  anisole captured in organic phase, of initial concentration: 39.57%
[1]; 30% dodecane
  anisole extracted: approximately 75%
[1]; 50% dodecane
  anisole extracted: ~95%
[2]
  anisole disappeared from media: 89%
[3]
  capture of anisole by organic solvents: successfully captured
[4]
  effect on growth: did not show any detrimental effects on growth

## Oc1ccccc1 [phenol]
[4]; growth of P. putida KT2440
  concentration up to which growth rates did not deviate: up to 2 mM
  concentration with detrimental effect on growth rate and final cell density: ≥ 3000 µM
  phenol concentration the strain was able to withstand: up to 5 mM

B1: CVOMT1: chavicol O-methyltransferase (EC 2.1.1.146) from Ocimum basilicum, SEQ ID NO:1 (protein, listed as Ocimum basilicum)
chain: MALQNMDISLSTEQLLQAQAHVWNHMYAFANSMSLKCAIQLGIPDILHKHDHPMTLSQLLKAIPINKEKSQSFQRLMRALVNSNFFIEENSNNQEVCYWLTPASRLLLKGAPLTVAPLVQVVLDPTFTNPWHYMSEWFKHENHATQFEAANGCTFWEKLANKPSMGRFFDEAMSCDSRLVAHVLTKDYKHVIDGIRTLVDVGGGNGTMAKAIVEAVPTMKCTVLDLPHVVAGLESTDKLSYIGGDMFQSIPSADAILLKFIIHDWDDEEGLKILKRCKDAVGIGGKVIIIDVVVGVNHDVDEVLEDQLHFDMAMMSYFNAKERTMNEWEKLISAAGFTSYKLTPAFGVRSLIEAYP
[5]; CM-Aux with C- and A-module, phenol and methionine added (1 mM)
  doubling time: 1.8 h
[6]; 1 mM methionine added
  anisole yield of the converted phenol: 15.5 % mol/mol
[6]; no methionine
  anisole detection: no anisole was detected
[6]; no methionine, 24 hours
  phenol consumed: 0.12 mM
[7]
  anisole produced, maximum: 0.06 mM
  phenol consumed: 0.23 mM

B2: POMT1: evolved phenol O-methyltransferase, SEQ ID NO:1 with D264N alteration (SEQ ID NO:3) (protein)
chain: B1 chain with D264N
[5]; CM-Aux, 1 mM methionine, different phenol concentrations
  phenol concentration at which maximum growth rate is reached: 0.2 mM
[7]
  increase in anisole concentration compared to wild-type enzyme: 2.33 fold
  anisole produced, maximum: 0.14 mM
  phenol consumed: 0.38 mM
[7]; within 24 hours
  phenol consumption more than CVOMT1: 65%
